Experimental data reported in US20250026759A1 (Merck Sharp & Dohme LLC, priority 2023, published 2025).

Tested on: PBMCs infected with VSV-G pseudotyped HIV virus (VSV-G/pNLG1-P2A-ΔEnv)
Test: cells
Assay type: cell-based, human
Settings: Homo sapiens, PBMC, read-out: TACK EC50

Structure (SMILES) | EC50
O=C1Nc2cc(Cn3cc4cnccc4n3)c(F)cc2[C@@](C#CC2CC2)(C(F)(F)F)N1 [Example 21, (S)-7-((2H-pyrazolo[4,3-c]pyridin-2-yl)methyl)-4-(cyclopropylethynyl)-6-fluoro-4-(trifluoromethyl)-3,4-dihydroquinazolin-2(1H)-one] | 13.4 nM
O=C1Nc2cc(Cn3cc4ccncc4n3)c(F)cc2[C@@](C#CC2CC2)(C(F)(F)F)N1 (single isomer, unassigned) [Example 26] | 13.6 nM
CC(F)(F)[C@@]1(C#CC2CC2)NC(=O)Nc2cc(Cn3ccc(CCO)n3)c(F)cc21 [Example 47, (S)-4-(cyclopropylethynyl)-4-(1,1-difluoroethyl)-6-fluoro-7-((3-(2-hydroxyethyl)-1H-pyrazol-1-yl)methyl)-3,4-dihydroquinazolin-2(1H)-one] | 37.7 nM
COc1ccn(Cc2cc3c(cc2F)[C@@](C#CC2CC2)(C(C)(F)F)NC(=O)N3)n1 [Example 57, (S)-4-(cyclopropylethynyl)-4-(1,1-difluoroethyl)-6-fluoro-7-((3-methoxy-1H-pyrazol-1-yl)methyl)-3,4-dihydroquinazolin-2(1H)-one] | 12.8 nM
COc1nn(Cc2cc3c(cc2F)[C@@](C#CC2CC2)(C(C)(F)F)NC(=O)N3)cc1Cl [Example 95, (S)-7-((4-chloro-3-methoxy-1H-pyrazol-1-yl)methyl)-4-(cyclopropylethynyl)-4-(1,1-difluoroethyl)-6-fluoro-3,4-dihydroquinazolin-2(1H)-one] | 24.1 nM
CC(F)(F)[C@@]1(C#CC2CC2)NC(=O)Nc2cc(Cn3nc(CO)cc3Cl)c(F)cc21 [Example 69, (S)-7-((5-chloro-3-(hydroxymethyl)-1H-pyrazol-1-yl)methyl)-4-(cyclopropylethynyl)-4-(1,1-difluoroethyl)-6-fluoro-3,4-dihydroquinazolin-2(1H)-one] | 29.8 nM
Cc1nn(Cc2cc3c(cc2F)[C@@](C#CC2CC2)(C(C)(F)F)NC(=O)N3)c2ccccc12 [Example 93, (S)-4-(cyclopropylethynyl)-4-(1,1-difluoroethyl)-6-fluoro-7-((3-methyl-1H-indazol-1-yl)methyl)-3,4-dihydroquinazolin-2(1H)-one] | 28.5 nM
NC(=O)c1ncn(Cc2cc3c(cc2F)[C@@](C#CC2CC2)(C(F)(F)F)NC(=O)N3)n1 (single isomer, unassigned) [Example 117] | 31.6 nM
CN1C(=O)NC(=O)C1Cc1cc2c(cc1F)[C@@](C#CC1CC1)(C(C)(F)F)NC(=O)N2 (single isomer, unassigned) [Example 124, (S or R)-5-(((S)-4-(cyclopropylethynyl)-4-(1,1-difluoroethyl)-6-fluoro-2-oxo-1,2,3,4-tetrahydroquinazolin-7-yl)methyl)-1-methylimidazolidine-2,4-dione] | 90.4 nM
COCc1ccn(Cc2cc3c(cc2F)[C@@](C#CC2CC2)(C(C)(F)F)NC(=O)N3)n1 [Example 54, (S)-4-(cyclopropylethynyl)-4-(1,1-difluoroethyl)-6-fluoro-7-((3-(methoxymethyl)-1H-pyrazol-1-yl)methyl)-3,4-dihydroquinazolin-2(1H)-one] | 33.5 nM
CC(F)(F)[C@@]1(C#CC2CC2)NC(=O)Nc2cc(Cn3nc[nH]c3=O)c(F)cc21 [Example 109, (S)-4-(cyclopropylethynyl)-4-(1,1-difluoroethyl)-6-fluoro-7-((5-oxo-4,5-dihydro-1H-1,2,4-triazol-1-yl)methyl)-3,4-dihydroquinazolin-2(1H)-one] | 20.9 nM
CC(F)(F)[C@@]1(C#CC2CC2)NC(=O)Nc2cc(Cn3ncnc3C(N)=O)c(F)cc21 (single isomer, unassigned) [Example 114] | 18.5 nM
O=C1Nc2cc(Cn3ncc4c3CCOC4)c(F)cc2[C@@](C#CC2CC2)(C(F)(F)F)N1 (single isomer, unassigned) [Example 22] | 60.5 nM
CC(F)(F)[C@@]1(C#CC2CC2)NC(=O)Nc2cc(Cn3ccc(CO)n3)c(F)cc21 [Example 2, (S)-4-(cyclopropylethynyl)-4-(1,1-difluoroethyl)-6-fluoro-7-((3-(hydroxymethyl)-1H-pyrazol-1-yl)methyl)-3,4-dihydroquinazolin-2(1H)-one] | 14.5 nM
CC(F)(F)[C@@]1(C#CC2CC2)NC(=O)Nc2cc(Cn3cc4ccccc4n3)c(F)cc21 [Example 90, (S)-7-((2H-indazol-2-yl)methyl)-4-(cyclopropylethynyl)-4-(1,1-difluoroethyl)-6-fluoro-3,4-dihydroquinazolin-2(1H)-one] | 9.4 nM
O=C1Nc2cc(Cc3[nH]nc4ccccc34)c(F)cc2[C@@](C#CC2CC2)(C(F)(F)F)N1 [Example 119, (S)-7-((2H-indazol-3-yl)methyl)-4-(cyclopropylethynyl)-6-fluoro-4-(trifluoromethyl)-3,4-dihydroquinazolin-2(1H)-one] | 57.8 nM
CN(C)Cc1ccn(Cc2cc3c(cc2F)[C@@](C#CC2CC2)(C(C)(F)F)NC(=O)N3)n1 [Example 126, (S)-4-(cyclopropylethynyl)-4-(1,1-difluoroethyl)-7-((3-((dimethylamino)methyl)-1H-pyrazol-1-yl)methyl)-6-fluoro-3,4-dihydroquinazolin-2(1H)-one] | 101 nM
CC(F)(F)[C@@]1(C#CC2CC2)NC(=O)Nc2cc(Cn3cnc(C(N)=O)n3)c(F)cc21 (single isomer, unassigned) [Example 113] | 51.2 nM
O=C1Nc2cc(Cn3cn[nH]c3=O)c(F)cc2[C@@](C#CC2CC2)(C(F)(F)F)N1 [Example 34, (S)-4-(cyclopropylethynyl)-6-fluoro-7-((5-oxo-1,5-dihydro-4H-1,2,4-triazol-4-yl)methyl)-4-(trifluoromethyl)-3,4-dihydroquinazolin-2(1H)-one] | 44.6 nM
CC(F)(F)[C@@]1(C#CC2CC2)NC(=O)Nc2cc(Cn3cc(Cl)cn3)c(F)cc21 [Example 16, (S)-7-((4-chloro-1H-pyrazol-1-yl)methyl)-4-(cyclopropylethynyl)-4-(1,1-difluoroethyl)-6-fluoro-3,4-dihydroquinazolin-2(1H)-one] | 32.4 nM
CC(C)(O)c1ccn(Cc2cc3c(cc2F)[C@@](C#CC2CC2)(C(C)(F)F)NC(=O)N3)n1 [Example 129, (S)-4-(cyclopropylethynyl)-4-(1,1-difluoroethyl)-6-fluoro-7-((3-(2-hydroxypropan-2-yl)-1H-pyrazol-1-yl)methyl)-3,4-dihydroquinazolin-2(1H)-one] | 171 nM
O=C1Nc2cc(CNC(=O)c3ncc[nH]3)c(F)cc2[C@@](C#CC2CC2)(C(F)(F)F)N1 [Example 80, (S)-N-((4-(cyclopropylethynyl)-6-fluoro-2-oxo-4-(trifluoromethyl)-1,2,3,4-tetrahydroquinazolin-7-yl)methyl)-1H-imidazole-2-carboxamide] | 9.8 nM
COCc1cc(Cl)n(Cc2cc3c(cc2F)[C@@](C#CC2CC2)(C(C)(F)F)NC(=O)N3)n1 [Example 18, (S)-7-((5-chloro-3-(methoxymethyl)-1H-pyrazol-1-yl)methyl)-4-(cyclopropylethynyl)-4-(1,1-difluoroethyl)-6-fluoro-3,4-dihydroquinazolin-2(1H)-one] | 46.6 nM
CC(F)(F)[C@@]1(C#CC2CC2)NC(=O)Nc2cc(Cn3c(Cl)n[nH]c3=O)c(F)cc21 [Example 35, (S)-7-((3-chloro-5-oxo-1,5-dihydro-4H-1,2,4-triazol-4-yl)methyl)-4-(cyclopropylethynyl)-4-(1,1-difluoroethyl)-6-fluoro-3,4-dihydroquinazolin-2(1H)-one] | 10.9 nM
CN(Cc1cc2c(cc1F)[C@@](C#CC1CC1)(C(C)(F)F)NC(=O)N2)c1cc[nH]n1 [Example 111, (S)-4-(cyclopropylethynyl)-4-(1,1-difluoroethyl)-6-fluoro-7-((methyl(1H-pyrazol-3-yl)amino)methyl)-3,4-dihydroquinazolin-2(1H)-one] | 103 nM
O=C1Nc2cc(Cn3c(=O)[nH]c4cccnc43)c(F)cc2[C@@](C#CC2CC2)(C(F)(F)F)N1 (single isomer, unassigned) [Example 7] | 12 nM
O=C1Nc2cc(CNC(=O)c3[nH]cnc3Cl)c(F)cc2[C@@](C#CC2CC2)(C(F)(F)F)N1 [Example 78, (S)-4-chloro-N-((4-(cyclopropylethynyl)-6-fluoro-2-oxo-4-(trifluoromethyl)-1,2,3,4-tetrahydroquinazolin-7-yl)methyl)-1H-imidazole-5-carboxamide] | 15.1 nM
CC(F)(F)[C@@]1(C#CC2CC2)NC(=O)Nc2cc(Cn3nnc4ccccc43)c(F)cc21 [Example 92, (S)-7-((1H-benzo[d][1,2,3]triazol-1-yl)methyl)-4-(cyclopropylethynyl)-4-(1,1-difluoroethyl)-6-fluoro-3,4-dihydroquinazolin-2(1H)-one] | 10.6 nM
Nc1ncn(Cc2cc3c(cc2F)[C@@](C#CC2CC2)(C(F)(F)F)NC(=O)N3)n1 (single isomer, unassigned) [Example 107] | 17.4 nM

Same assay, conditions: read-out: TACK EC50

Structure (SMILES) | EC50
COC(C)c1ccn(Cc2cc3c(cc2F)[C@@](C#CC2CC2)(C(C)(F)F)NC(=O)N3)n1 (single isomer, unassigned) [Example 59, (S)-4-(cyclopropylethynyl)-4-(1,1-difluoroethyl)-6-fluoro-7-((3-((S or R)-1-methoxyethyl)-1H-pyrazol-1-yl)methyl)-3,4-dihydroquinazolin-2(1H)-one] | 55.6 nM
CN1C(=O)NC(=O)C1Cc1cc2c(cc1F)[C@@](C#CC1CC1)(C(C)(F)F)NC(=O)N2 (single isomer, unassigned) [Example 125, (R or S)-5-(((S)-4-(cyclopropylethynyl)-4-(1,1-difluoroethyl)-6-fluoro-2-oxo-1,2,3,4-tetrahydroquinazolin-7-yl)methyl)-1-methylimidazolidine-2,4-dione] | 111 nM
CC(O)c1ccn(Cc2cc3c(cc2F)[C@@](C#CC2CC2)(C(C)(F)F)NC(=O)N3)n1 (single isomer, unassigned) [Example 73, (S)-4-(cyclopropylethynyl)-4-(1,1-difluoroethyl)-6-fluoro-7-((3-((R or S)-1-hydroxyethyl)-1H-pyrazol-1-yl)methyl)-3,4-dihydroquinazolin-2(1H)-one] | 24.5 nM
